Assay results: the NIST ThermoML archive (doi:10.1016/j.fluid.2006.08.004)
Numbers after ± are expanded uncertainties.

Experiments:
[1] = Liquid; for mass density: 298.15 K, 101.33 kPa; for Normal boiling temperature: Ebulliometric method (Recirculating still)
[2] = refractive index (Na D-line) (dimensionless); settings: 298.15 K; 101.33 kPa; Liquid; Standard Abbe refractometry

SMILES | mass density [1] [kg/m3] | Normal boiling temperature [1] [°C] | refractive index [2]
CC(C)OC(C)C [diisopropyl ether] | 718.37 ± 1.2 | 68.38 ± 0.1 | 1.36512 ± 0.0007
CC(C)CC(C)(C)C [2,2,4-trimethylpentane] | 687.72 ± 0.65 | 99.18 ± 0.01 | 1.38887 ± 0.00068
CCO [ethanol] | 785.09 ± 0.25 | 78.29 ± 0.01 | 1.35926 ± 0.00068
